Reference: PubChem BioAssay (NCI)
“And” between values parts separate entries of the source, which are not always exact repeats. Equal entries are not always repeated.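 Method: 48-hour compound exposure of cells in 96-well plates, five concentrations, linear interpolation of endpoints. The concentration for 50% growth inhibition is given as GI50. TGI: total growth inhibition.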

Columns and labels:
Test in all cases: NCI tumour cell line growth inhibition, 48 h
NCI/ADR-RES ovarian = system: NCI/ADR-RES ovarian
TK-10 renal = system: TK-10 renal
K-562 leukemia = system: K-562 leukemia
CCRF-CEM leukemia = system: CCRF-CEM leukemia
LOX IMVI melanoma = system: LOX IMVI melanoma
OVCAR-3 ovarian = system: OVCAR-3 ovarian
MOLT-4 leukemia = system: MOLT-4 leukemia
DU-145 prostate = system: DU-145 prostate
KM12 colon = system: KM12 colon
SF-539 CNS = system: SF-539 CNS
MALME-3M melanoma = system: MALME-3M melanoma
NCI-H460 lung = system: NCI-H460 lung
OVCAR-5 ovarian = system: OVCAR-5 ovarian
HOP-62 NSCLC = system: HOP-62 NSCLC
SR leukemia = system: SR leukemia
HCT-15 colon = system: HCT-15 colon
SK-MEL-2 melanoma = system: SK-MEL-2 melanoma
SW-620 colon = system: SW-620 colon
CAKI-1 renal = system: CAKI-1 renal
SF-295 CNS = system: SF-295 CNS
SN12C renal = system: SN12C renal
NCI-H226 lung = system: NCI-H226 lung
SK-OV-3 ovarian = system: SK-OV-3 ovarian
MDA-MB-231 breast = system: MDA-MB-231 breast
SK-MEL-28 melanoma = system: SK-MEL-28 melanoma
HCT-116 colon = system: HCT-116 colon
COLO 205 colon = system: COLO 205 colon
T-47D breast = system: T-47D breast
OVCAR-4 ovarian = system: OVCAR-4 ovarian
NCI-H23 lung = system: NCI-H23 lung
786-0 renal = system: 786-0 renal
U251 CNS = system: U251 CNS
MDA-MB-435 = system: MDA-MB-435
HT29 colon = system: HT29 colon
MCF7 breast = system: MCF7 breast
IGROV1 ovarian = system: IGROV1 ovarian
SNB-19 CNS = system: SNB-19 CNS
HL-60(TB) leukemia = system: HL-60(TB) leukemia
OVCAR-8 ovarian = system: OVCAR-8 ovarian
UO-31 renal = system: UO-31 renal
SNB-75 CNS = system: SNB-75 CNS
M14 melanoma = system: M14 melanoma
NCI-H522 lung = system: NCI-H522 lung
UACC-62 melanoma = system: UACC-62 melanoma
UACC-257 melanoma = system: UACC-257 melanoma
ACHN renal = system: ACHN renal
RPMI-8226 leukemia = system: RPMI-8226 leukemia
SK-MEL-5 melanoma = system: SK-MEL-5 melanoma
PC-3 prostate = system: PC-3 prostate
SF-268 CNS = system: SF-268 CNS

With `COc1c(OCCCN2CCOCC2)ccc2c3n(c(=NC(=O)c4cnc(N)nc4)nc12)CCN3` the GI50 (NCI/ADR-RES ovarian) was 428 nM [middle of 4 runs], the TGI (NCI/ADR-RES ovarian) was over 100000 nM and the TGI (TK-10 renal) was 198 nM and 782 nM. The GI50 (K-562 leukemia) was 1.68 µM [middle of 4 runs], the TGI (K-562 leukemia) was over 100000 nM and the GI50 (CCRF-CEM leukemia) was 48.9 nM [middle of 4 runs]. For the same molecule, the TGI (CCRF-CEM leukemia) was over 100000 nM, the GI50 (LOX IMVI melanoma) was 64.9 nM [middle of 4 runs] and the GI50 (OVCAR-3 ovarian) was 36.2 nM and 28.3 nM and 126 nM. The TGI (OVCAR-3 ovarian) was 890 nM and 976 nM and 4920 nM, the GI50 (MOLT-4 leukemia) was 36.3 nM and 40.9 nM and 28.3 nM and the TGI (DU-145 prostate) was over 100000 nM. The GI50 (KM12 colon) was 368 nM [middle of 4 runs], the TGI (SF-539 CNS) was 664 nM [middle of 4 runs] and the TGI (MALME-3M melanoma) was 448 nM [middle of 4 runs]. The GI50 (NCI-H460 lung) was 39.7 nM [middle of 4 runs], the TGI (NCI-H460 lung) was over 100000 nM and the GI50 (OVCAR-5 ovarian) was 31.2 nM [middle of 4 runs]. For the same molecule, the TGI (OVCAR-5 ovarian) was over 100000 nM, the GI50 (HOP-62 NSCLC) was 132 nM [middle of 4 runs] and the TGI (HOP-62 NSCLC) was over 100000 nM. The GI50 (SR leukemia) was 315 nM [middle of 4 runs], the GI50 (HCT-15 colon) was 59.9 nM [middle of 4 runs] and the TGI (HCT-15 colon) was over 100000 nM. The GI50 (SK-MEL-2 melanoma) was 197 nM [middle of 4 runs], the GI50 (SW-620 colon) was 216 nM [middle of 4 runs] and the TGI (SW-620 colon) was over 100000 nM. For the same molecule, the TGI (CAKI-1 renal) was 3380 nM and > 10000 nM and 2400 nM, the GI50 (SF-295 CNS) was 74.8 nM [middle of 4 runs] and the TGI (SF-295 CNS) was 814 nM [middle of 4 runs]. For the same molecule, the GI50 (SN12C renal) was 88.5 nM [middle of 4 runs], the TGI (SN12C renal) was over 100000 nM and the GI50 (NCI-H226 lung) was 144 nM [middle of 4 runs]. The TGI (NCI-H226 lung) was over 100000 nM, the TGI (SK-OV-3 ovarian) was 67.3 nM and 446 nM and 74.5 nM and the GI50 (MDA-MB-231 breast) was 339 nM [middle of 4 runs]. For the same molecule, the TGI (SK-MEL-28 melanoma) was 7660 nM and 810 nM and 1640 nM, the GI50 (HCT-116 colon) was 109 nM [middle of 4 runs] and the TGI (HCT-116 colon) was over 100000 nM. The GI50 (COLO 205 colon) was 38.1 nM [middle of 4 runs], the GI50 (T-47D breast) was 7.5 nM and 2.58 nM and < 10 nM and the TGI (T-47D breast) was 39.4 nM and 40.8 nM and 30.2 nM. For the same molecule, the GI50 (OVCAR-4 ovarian) was 469 nM and 391 nM and 438 nM, the TGI (OVCAR-4 ovarian) was > 75000 nM and 10800 nM and 7650 nM and the GI50 (NCI-H23 lung) was 398 nM [middle of 4 runs]. The TGI (NCI-H23 lung) was over 100000 nM, the GI50 (786-0 renal) was 91.3 nM [middle of 4 runs] and the TGI (U251 CNS) was over 100000 nM. For the same molecule, the GI50 (MDA-MB-435) was 142 nM [middle of 4 runs], the GI50 (HT29 colon) was 17.7 nM and 24.9 nM and 10.9 nM and the TGI (HT29 colon) was over 100000 nM. For the same molecule, the TGI (MCF7 breast) was over 100000 nM, the TGI (IGROV1 ovarian) was 40.3 nM [middle of 4 runs] and the GI50 (SNB-19 CNS) was 297 nM [middle of 4 runs]. The TGI (SNB-19 CNS) was over 100000 nM, the TGI (HL-60(TB) leukemia) was over 75000 nM and the GI50 (OVCAR-8 ovarian) was 228 nM [middle of 4 runs]. The TGI (OVCAR-8 ovarian) was over 100000 nM, the GI50 (UO-31 renal) was 22.4 nM and 23.8 nM and 24.5 nM and the GI50 (SNB-75 CNS) was 7.5 nM and < 12.3 nM and < 10 nM. The TGI (SNB-75 CNS) was 50.4 nM and 33 nM, the GI50 (M14 melanoma) was 118 nM [middle of 4 runs] and the GI50 (NCI-H522 lung) was 138 nM [middle of 4 runs]. The GI50 (UACC-62 melanoma) was 48.3 nM [middle of 4 runs], the TGI (UACC-62 melanoma) was 464 nM [middle of 4 runs] and the GI50 (UACC-257 melanoma) was 77.4 nM [middle of 4 runs]. For the same molecule, the GI50 (ACHN renal) was 72.3 nM [middle of 4 runs], the TGI (ACHN renal) was over 100000 nM and the GI50 (RPMI-8226 leukemia) was 220 nM and 174 nM and 323 nM. For the same molecule, the TGI (RPMI-8226 leukemia) was 2050 nM and > 10000 nM, the GI50 (SK-MEL-5 melanoma) was 228 nM [middle of 4 runs] and the TGI (SK-MEL-5 melanoma) was 1.51 µM [middle of 4 runs]. It also gave a TGI (PC-3 prostate) of over 100000 nM and a TGI (SF-268 CNS) of over 100000 nM.
